Several values for one entry are separate records, joined by “and”; a condition that tells them apart may be missing. Equal entries are not always repeated.
How the values were obtained:
HDAC7 = target: T1, HDAC7 (Homo sapiens, UniProt Q8WUI4); experiment: In vitro HDAC profiling (deacetylation assay), HDAC7; type: biochemical; conditions: for HDAC Activity (Fluorescent counts): Repeat1/Repeat 2
T1 construct: purchased BPS Bioscience #50051-11
T1 sequence (Q8WUI4 1-952): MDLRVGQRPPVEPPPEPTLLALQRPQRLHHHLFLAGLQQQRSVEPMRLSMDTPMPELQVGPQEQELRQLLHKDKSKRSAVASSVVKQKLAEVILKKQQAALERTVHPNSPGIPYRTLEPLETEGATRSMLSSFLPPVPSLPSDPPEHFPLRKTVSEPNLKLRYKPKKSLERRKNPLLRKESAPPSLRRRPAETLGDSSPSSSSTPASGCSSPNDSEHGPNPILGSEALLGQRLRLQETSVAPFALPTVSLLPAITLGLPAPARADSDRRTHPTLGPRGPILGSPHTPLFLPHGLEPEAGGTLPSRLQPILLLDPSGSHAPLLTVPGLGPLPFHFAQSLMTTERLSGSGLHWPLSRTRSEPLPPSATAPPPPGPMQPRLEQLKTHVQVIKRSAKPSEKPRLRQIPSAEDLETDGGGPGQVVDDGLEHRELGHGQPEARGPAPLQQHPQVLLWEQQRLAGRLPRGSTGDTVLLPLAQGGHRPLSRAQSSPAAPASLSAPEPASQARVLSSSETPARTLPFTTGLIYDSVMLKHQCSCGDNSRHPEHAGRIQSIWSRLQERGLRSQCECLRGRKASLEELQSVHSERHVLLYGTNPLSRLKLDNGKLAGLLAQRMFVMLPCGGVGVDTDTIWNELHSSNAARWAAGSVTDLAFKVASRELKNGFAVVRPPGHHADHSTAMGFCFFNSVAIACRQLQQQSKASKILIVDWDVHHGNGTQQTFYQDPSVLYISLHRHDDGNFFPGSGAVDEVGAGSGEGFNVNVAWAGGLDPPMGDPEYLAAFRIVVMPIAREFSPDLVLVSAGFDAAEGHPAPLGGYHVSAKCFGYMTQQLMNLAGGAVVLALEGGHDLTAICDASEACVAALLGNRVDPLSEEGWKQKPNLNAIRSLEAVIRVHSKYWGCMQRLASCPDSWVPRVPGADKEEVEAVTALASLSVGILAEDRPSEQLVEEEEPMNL
Description: (§1) HDAC profiling was performed at BPS Bioscience (San Diego, CA). All of the compounds are dissolved in DMSO. A series of dilutions of the compounds were prepared with 10% DMSO in HDAC assay buffer (#50031) and 5 µl of the dilution was added to a 50 µl reaction so that the final concentration of DMSO is 1% in all of reactions. All of the enzymatic reactions were conducted in duplicate at 37 °C for 30 mins, except that the enzyme reactions for HDAC11 were at room temperature for 3 hrs. All of the reactions were performed in a 50 µl mixture containing HDAC assay buffer, 5 µg BSA, an HDAC substrate [HDAC Substrate 3 (BPS number 50037) or HDAC Class 2a Substrate 1 (BPS number 50040)], an HDAC enzyme (#50051-11) and a test compound. After enzymatic reactions, 50 μl of HDAC Developer (#50030) was added to each well and the plate was incubated at room temperature for an additional 20 mins. Fluorescence intensity was measured at an excitation of 360 nm and an emission of 460 nm using a Tecan Infinite M1000 microplate reader. HDAC activity assays were performed in duplicates at each concentration. The fluorescent intensity data were analyzed using the computer software, Graphpad Prism. In the absence of the compound, the fluorescent intensity (Ft) in each data set was defined as 100% activity. In the absence of HDAC, the fluorescent intensity (Fb) in each data set was defined as 0% activity. The percent activity in the presence of each compound was calculated according to the following equation: %activity = (F − Fb)/(Ft − Fb), where F = the fluorescent intensity in the presence of the compound. The values of % activity versus a series of compound concentrations were then plotted using non-linear regression analysis of Sigmoidal dose-response curve generated with the equation Y = B + (T − B)/1 + 10((LogIC50 − X) × Hill Slope), where Y = percent activity, B = minimum percent activity, T = maximum percent activity, X = logarithm of compound and Hill Slope = slope factor or Hill coefficient. The IC50 value was determined by the concentration causing a half-maximal percent activity.

HDAC1 = target: T2, HDAC1 (Homo sapiens, UniProt Q13547); experiment: In vitro HDAC profiling (deacetylation assay), HDAC1; type: biochemical; conditions: for HDAC Activity (Fluorescent counts): Repeat1/Repeat 2
T2 construct: purchased BPS Bioscience #50051-11
Description: as §1

[1] = in vitro deacetylation assay, duplicates

T2 sequence (Q13547 whole entry): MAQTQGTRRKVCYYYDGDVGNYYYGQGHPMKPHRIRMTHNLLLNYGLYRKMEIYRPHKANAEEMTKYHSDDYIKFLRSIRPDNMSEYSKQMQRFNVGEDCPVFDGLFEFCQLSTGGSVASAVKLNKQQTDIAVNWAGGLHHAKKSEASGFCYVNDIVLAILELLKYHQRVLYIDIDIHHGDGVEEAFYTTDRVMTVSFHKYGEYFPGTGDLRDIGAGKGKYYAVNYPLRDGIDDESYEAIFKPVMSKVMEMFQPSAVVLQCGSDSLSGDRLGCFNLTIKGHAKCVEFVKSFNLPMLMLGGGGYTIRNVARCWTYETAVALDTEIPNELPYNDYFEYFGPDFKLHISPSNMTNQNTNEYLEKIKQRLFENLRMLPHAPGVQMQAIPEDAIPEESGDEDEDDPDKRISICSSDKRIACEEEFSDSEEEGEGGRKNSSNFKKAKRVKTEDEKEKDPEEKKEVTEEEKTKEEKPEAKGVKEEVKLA

Question: With `O=C(CCCCCCC(=O)Nc1ccc(Cl)c(C(=O)Nc2ccc(NC(=O)c3cc(Cl)ccc3Cl)cc2)c1)NO` [IHR-SAHA] as the compound, how does the “HDAC Activity (Fluorescent counts)” value (HDAC7; HDAC7, WW01 0 Log nM) read?
Answer: 32252 Fluorescent counts and 31868 Fluorescent counts

Question: And the “HDAC Activity (Fluorescent counts)” value (HDAC7; HDAC7, WW01 0.5 Log nM)?
Answer: 34296 Fluorescent counts and 32176 Fluorescent counts

Question: And the “HDAC Activity (Fluorescent counts)” value (HDAC7; HDAC7, WW01 1 Log nM)?
Answer: 33398 Fluorescent counts and 31906 Fluorescent counts

Question: What about the “HDAC Activity (Fluorescent counts)” value (HDAC7; HDAC7, WW01 1.5 Log nM) of the same compound?
Answer: 32702 Fluorescent counts and 31126 Fluorescent counts

Question: What about the “HDAC Activity (Fluorescent counts)” value (HDAC7; HDAC7, WW01 2 Log nM) of the same compound?
Answer: 31277 Fluorescent counts and 30567 Fluorescent counts

Question: And the “HDAC Activity (Fluorescent counts)” value (HDAC7; HDAC7, WW01 2.5 Log nM)?
Answer: 29706 Fluorescent counts and 30369 Fluorescent counts

Question: And the “HDAC Activity (Fluorescent counts)” value (HDAC7; HDAC7, WW01 3 Log nM)?
Answer: 26605 Fluorescent counts and 26320 Fluorescent counts

Question: And the “HDAC Activity (Fluorescent counts)” value (HDAC7; HDAC7, WW01 3.5 Log nM)?
Answer: 26104 Fluorescent counts and 24955 Fluorescent counts

Question: What about the “HDAC Activity (Fluorescent counts)” value (HDAC7; HDAC7, WW01 4 Log nM) of the same compound?
Answer: 25321 Fluorescent counts and 25226 Fluorescent counts

Question: And the “HDAC Activity (Fluorescent counts)” value (HDAC7; HDAC7, WW01 -0.5 Log nM)?
Answer: 33125 Fluorescent counts and 32259 Fluorescent counts

Question: And the IC50 (HDAC7; [1])?
Answer: > 10 µM

Question: And the “HDAC Activity (Fluorescent counts)” value (HDAC1; HDAC1, WW01 0 Log nM)?
Answer: 31058 Fluorescent counts and 32831 Fluorescent counts

Question: What about the “HDAC Activity (Fluorescent counts)” value (HDAC1; HDAC1, WW01 0.5 Log nM) of the same compound?
Answer: 31900 Fluorescent counts and 30926 Fluorescent counts

Question: What about the “HDAC Activity (Fluorescent counts)” value (HDAC1; HDAC1, WW01 1 Log nM) of the same compound?
Answer: 29505 Fluorescent counts and 28223 Fluorescent counts

Question: And the “HDAC Activity (Fluorescent counts)” value (HDAC1; HDAC1, WW01 1.5 Log nM)?
Answer: 27089 Fluorescent counts and 26820 Fluorescent counts

Question: And the “HDAC Activity (Fluorescent counts)” value (HDAC1; HDAC1, WW01 2 Log nM)?
Answer: 21883 Fluorescent counts and 21225 Fluorescent counts

Question: And the “HDAC Activity (Fluorescent counts)” value (HDAC1; HDAC1, WW01 2.5 Log nM)?
Answer: 19997 Fluorescent counts and 14409 Fluorescent counts

Question: And the “HDAC Activity (Fluorescent counts)” value (HDAC1; HDAC1, WW01 3 Log nM)?
Answer: 9008 Fluorescent counts and 8923 Fluorescent counts

Question: What about the “HDAC Activity (Fluorescent counts)” value (HDAC1; HDAC1, WW01 3.5 Log nM) of the same compound?
Answer: 7360 Fluorescent counts and 7292 Fluorescent counts

Question: And the “HDAC Activity (Fluorescent counts)” value (HDAC1; HDAC1, WW01 4 Log nM)?
Answer: 6195 Fluorescent counts and 6043 Fluorescent counts

Question: And the “HDAC Activity (Fluorescent counts)” value (HDAC1; HDAC1, WW01 -0.5 Log nM)?
Answer: 31660 Fluorescent counts and 32681 Fluorescent counts

Question: And the IC50 (HDAC1; [1])?
Answer: 0.285 µM
